Here are results for 17 compounds from PubChem BioAssay (NCI).

Where “and” joins values, the source holds several entries; their conditions need not be identical. Equal values may be shown once.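 1) Cells in 96-well plates. 2) Compound, 48 h, 5 concentrations. 3) Linear interpolation between surrounding doses. 4) Unreached endpoint = highest concentration. At the GI50, growth is halved. TGI: total growth inhibition.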

The subject of the first test is SK-OV-3 ovarian. In words: growth of human tumour cells (NCI), 48 h.
Consider `COc1ccc(-n2c(C)cc(-c3ccccc3)c2C)cc1`, for which the GI50 is 6.83 µM and the TGI is 68.6 µM.
The corresponding values for `O[C@H](c1cc(C(F)(F)F)nc2c(C(F)(F)F)cccc12)[C@@H]1CCCCN1` are 6.11 µM and 17.8 µM.
As to `CCCOc1ccc2sc(NC(=O)OC)nc2c1`, the GI50 is 4.36 µM and the TGI was more than 100 µM.
In turn, `O=C(O)c1ccc(OCc2ccccc2)c(Cl)c1` had a TGI of more than 100 µM.
Regarding `OCCCNc1nccc(-c2c(-c3ccc(F)cc3)nn3cc(C(F)(F)F)ccc23)n1`, the GI50 was 13 µM and the TGI was more than 25 µM.
The corresponding values for `O=S(=O)(Nc1ccc(F)cc1F)c1ccc(-c2cnc(C3CC3)o2)cc1` are 2.52 µM and 61.6 µM.
Turning to `O=C(CSC1CCc2ccccc21)N/N=C/c1ccccc1O` (configuration not stated), the GI50 is 11.5 µM and the TGI was more than 100 µM.
For `COc1cc(C(=O)N2CCN(c3ncccn3)CC2)c(N)cc1OCc1ccccc1`, the GI50 was more than 100 µM and the TGI is more than 100 µM.
Regarding `CCOc1ccncc1[N+](=O)[O-]`, the TGI is more than 100 µM.
In the case of `C=C1C(=O)OC2CC(C)C3(O)CCC(=O)C3(C)CC12` (configuration not stated), the TGI is more than 100 µM.
`Cc1nc2sc3c(c2c(=O)[nH]1)CCCC3` gave a TGI of more than 100 µM.
For the compound `O=C1NC(=O)/C(=C\c2ccccc2)C2=C1CCCC2`, the GI50 was 14.6 µM and the TGI turned out to be 27.8 µM.
Take `O=C(Nc1ccc(F)cc1)c1cc(S(=O)(=O)Nc2nc3ccccc3o2)c(SCc2ccccc2)cc1Cl`: the GI50 is 22.1 µM and the TGI is 53.1 µM.
Taken in the same sequence, the figures for `C#COc1cccc(Nc2c(C#N)cnc3ncc(NC(=O)CCl)cc23)c1` were more than 62.5 µM and more than 62.5 µM.
`CC[C@H]1CN2CCc3cc(OC)c(OC)cc3[C@@H]2C[C@@H]1C[C@H]1NCCc2c1[nH]c1ccc(O)cc21`: the GI50 was 0.0348 µM and 0.0711 µM; the TGI is 0.142 µM and 0.431 µM and 0.529 µM.
Turning to `CCCCCOc1ccc(/C=N/Nc2cc(C)nc3ccc(Br)cc23)cc1`, the GI50 was 1.75 µM and the TGI was 3.18 µM.

In a further test the test system is SN12C renal. In words: growth of human tumour cells (NCI), 48 h.
For `COc1ccc(O)c(C(=O)c2ccc(C(=O)N[C@H]3CCCNC[C@@H]3NC(=O)c3ccncc3)cc2)c1F`, the GI50 is 3.61 µM and the TGI was more than 25 µM.
`COc1ccc(-n2c(C)cc(-c3ccccc3)c2C)cc1`: the GI50 is 2.84 µM and the TGI is more than 100 µM.
Taken in the same sequence, the figures for `O[C@H](c1cc(C(F)(F)F)nc2c(C(F)(F)F)cccc12)[C@@H]1CCCCN1` were 4.19 µM and 14 µM.
The corresponding values for `CCCOc1ccc2sc(NC(=O)OC)nc2c1` are 6.2 µM and more than 100 µM.
Consider `O=C(O)c1ccc(OCc2ccccc2)c(Cl)c1`, for which the TGI is more than 100 µM.
Turning to `OCCCNc1nccc(-c2c(-c3ccc(F)cc3)nn3cc(C(F)(F)F)ccc23)n1`, the GI50 was 13.3 µM and the TGI was more than 25 µM.
Taken in the same sequence, the figures for `O=S(=O)(Nc1ccc(F)cc1F)c1ccc(-c2cnc(C3CC3)o2)cc1` were 0.878 µM and 39.8 µM.
In the case of `O=C(CSC1CCc2ccccc21)N/N=C/c1ccccc1O` (configuration not stated), the GI50 was 4.67 µM and the TGI came to 67.4 µM.
In the case of `COc1cc(C(=O)N2CCN(c3ncccn3)CC2)c(N)cc1OCc1ccccc1`, the GI50 is 63.9 µM and the TGI was more than 100 µM.
Regarding `CCOc1ccncc1[N+](=O)[O-]`, the TGI was more than 100 µM.
Turning to `C=C1C(=O)OC2CC(C)C3(O)CCC(=O)C3(C)CC12` (configuration not stated), the TGI came out at 48.8 µM.
With `Cc1nc2sc3c(c2c(=O)[nH]1)CCCC3`, the TGI is more than 100 µM.
Consider `O=C1NC(=O)/C(=C\c2ccccc2)C2=C1CCCC2`, for which the GI50 is 3.03 µM and the TGI turned out to be 11 µM.
Regarding `O=C(Nc1ccc(F)cc1)c1cc(S(=O)(=O)Nc2nc3ccccc3o2)c(SCc2ccccc2)cc1Cl`, the GI50 is 16.4 µM and the TGI was determined as 31.6 µM.
For the compound `C#COc1cccc(Nc2c(C#N)cnc3ncc(NC(=O)CCl)cc23)c1`, the GI50 was 16.2 µM and the TGI was more than 62.5 µM.
Regarding `CC[C@H]1CN2CCc3cc(OC)c(OC)cc3[C@@H]2C[C@@H]1C[C@H]1NCCc2c1[nH]c1ccc(O)cc21`, the GI50 is 0.0228 µM and 0.0349 µM; the TGI is 0.0741 µM and 0.136 µM and 0.19 µM.
For `CCCCCOc1ccc(/C=N/Nc2cc(C)nc3ccc(Br)cc23)cc1`, the GI50 was 1.72 µM and the TGI turned out to be 3.27 µM.

A further test has as its system U251 CNS. In words: growth of human tumour cells (NCI), 48 h.
Consider `COc1ccc(O)c(C(=O)c2ccc(C(=O)N[C@H]3CCCNC[C@@H]3NC(=O)c3ccncc3)cc2)c1F`, for which the GI50 was 8.12 µM and the TGI is more than 25 µM.
`COc1ccc(-n2c(C)cc(-c3ccccc3)c2C)cc1`: the GI50 was 2.87 µM and the TGI is 25.4 µM.
Turning to `O[C@H](c1cc(C(F)(F)F)nc2c(C(F)(F)F)cccc12)[C@@H]1CCCCN1`, the GI50 was 3.05 µM and the TGI worked out at 8.38 µM.
Consider `CCCOc1ccc2sc(NC(=O)OC)nc2c1`, for which the GI50 was 2.42 µM and the TGI was more than 100 µM.
In turn, `O=C(O)c1ccc(OCc2ccccc2)c(Cl)c1` came in with a TGI of more than 100 µM.
Consider `OCCCNc1nccc(-c2c(-c3ccc(F)cc3)nn3cc(C(F)(F)F)ccc23)n1`, for which the GI50 was 19.3 µM and the TGI is more than 25 µM.
Turning to `O=S(=O)(Nc1ccc(F)cc1F)c1ccc(-c2cnc(C3CC3)o2)cc1`, the GI50 was 0.552 µM and the TGI is 26.8 µM.
For `O=C(CSC1CCc2ccccc21)N/N=C/c1ccccc1O` (configuration not stated), the GI50 is 2.92 µM and the TGI was determined as 42.5 µM.
As to `COc1cc(C(=O)N2CCN(c3ncccn3)CC2)c(N)cc1OCc1ccccc1`, the GI50 was more than 100 µM and the TGI is more than 100 µM.
Take `CCOc1ccncc1[N+](=O)[O-]`: the TGI was more than 100 µM.
On the same count and under the same terms, with `C=C1C(=O)OC2CC(C)C3(O)CCC(=O)C3(C)CC12` (configuration not stated) the figure was more than 100 µM; with `Cc1nc2sc3c(c2c(=O)[nH]1)CCCC3`, more than 100 µM.
Regarding `O=C1NC(=O)/C(=C\c2ccccc2)C2=C1CCCC2`, the GI50 is 4.82 µM and the TGI stood at 16.2 µM.
Take `O=C(Nc1ccc(F)cc1)c1cc(S(=O)(=O)Nc2nc3ccccc3o2)c(SCc2ccccc2)cc1Cl`: the GI50 was 17.3 µM and the TGI turned out to be 31.7 µM.
Taken in the same sequence, the figures for `C#COc1cccc(Nc2c(C#N)cnc3ncc(NC(=O)CCl)cc23)c1` were 12.5 µM and 53.6 µM.
Turning to `CC[C@H]1CN2CCc3cc(OC)c(OC)cc3[C@@H]2C[C@@H]1C[C@H]1NCCc2c1[nH]c1ccc(O)cc21`, the GI50 was 0.0222 µM and 0.0255 µM; the TGI was 0.0702 µM and 0.075 µM and 0.154 µM.
In the case of `CCCCCOc1ccc(/C=N/Nc2cc(C)nc3ccc(Br)cc23)cc1`, the GI50 was 1.82 µM and the TGI came out at 3.39 µM.

Another test deals with UACC-62 melanoma. The test can be described thus: growth of human tumour cells (NCI), 48 h.
As for `COc1ccc(O)c(C(=O)c2ccc(C(=O)N[C@H]3CCCNC[C@@H]3NC(=O)c3ccncc3)cc2)c1F`, the GI50 was 9.26 µM and the TGI is more than 25 µM.
The corresponding values for `COc1ccc(-n2c(C)cc(-c3ccccc3)c2C)cc1` are 2.01 µM and 12.8 µM.
Regarding `O[C@H](c1cc(C(F)(F)F)nc2c(C(F)(F)F)cccc12)[C@@H]1CCCCN1`, the GI50 is 5.9 µM and the TGI stood at 17.5 µM.
As for `CCCOc1ccc2sc(NC(=O)OC)nc2c1`, the GI50 is 3.64 µM and the TGI was more than 100 µM.
Consider `O=C(O)c1ccc(OCc2ccccc2)c(Cl)c1`, for which the TGI was more than 100 µM.
Consider `OCCCNc1nccc(-c2c(-c3ccc(F)cc3)nn3cc(C(F)(F)F)ccc23)n1`, for which the GI50 is 15.1 µM and the TGI is more than 25 µM.
Consider `O=S(=O)(Nc1ccc(F)cc1F)c1ccc(-c2cnc(C3CC3)o2)cc1`, for which the GI50 is 0.358 µM and the TGI was 23.3 µM.
Take `O=C(CSC1CCc2ccccc21)N/N=C/c1ccccc1O` (configuration not stated): the GI50 is 2.82 µM and the TGI is 13.6 µM.
In the case of `COc1cc(C(=O)N2CCN(c3ncccn3)CC2)c(N)cc1OCc1ccccc1`, the GI50 is more than 100 µM and the TGI is more than 100 µM.
As to `CCOc1ccncc1[N+](=O)[O-]`, the TGI was more than 100 µM.
In turn, `C=C1C(=O)OC2CC(C)C3(O)CCC(=O)C3(C)CC12` (configuration not stated) yielded a TGI of more than 100 µM.
With `Cc1nc2sc3c(c2c(=O)[nH]1)CCCC3`, the TGI is more than 100 µM.
Turning to `O=C1NC(=O)/C(=C\c2ccccc2)C2=C1CCCC2`, the GI50 was 3.13 µM and the TGI was found to be 9.13 µM.
Take `O=C(Nc1ccc(F)cc1)c1cc(S(=O)(=O)Nc2nc3ccccc3o2)c(SCc2ccccc2)cc1Cl`: the GI50 is 14.4 µM and the TGI was determined as 27.6 µM.
With `C#COc1cccc(Nc2c(C#N)cnc3ncc(NC(=O)CCl)cc23)c1`, the GI50 was 35.7 µM and the TGI is more than 62.5 µM.
As for `CC[C@H]1CN2CCc3cc(OC)c(OC)cc3[C@@H]2C[C@@H]1C[C@H]1NCCc2c1[nH]c1ccc(O)cc21`, the GI50 is 0.0249 µM and 0.0448 µM.
With `CCCCCOc1ccc(/C=N/Nc2cc(C)nc3ccc(Br)cc23)cc1`, the GI50 was 1.66 µM and the TGI was 3.13 µM.

The subject of the next test is UO-31 renal. The test can be described thus: growth of human tumour cells (NCI), 48 h.
For `COc1ccc(O)c(C(=O)c2ccc(C(=O)N[C@H]3CCCNC[C@@H]3NC(=O)c3ccncc3)cc2)c1F`, the GI50 is more than 18.9 µM and the TGI was more than 25 µM.
As for `COc1ccc(-n2c(C)cc(-c3ccccc3)c2C)cc1`, the GI50 is 2.24 µM and the TGI turned out to be 95.8 µM.
With `O[C@H](c1cc(C(F)(F)F)nc2c(C(F)(F)F)cccc12)[C@@H]1CCCCN1`, the GI50 was 1.88 µM and the TGI came out at 9.48 µM.
The corresponding values for `CCCOc1ccc2sc(NC(=O)OC)nc2c1` are 6.07 µM and more than 100 µM.
`O=C(O)c1ccc(OCc2ccccc2)c(Cl)c1` displayed a TGI of more than 100 µM.
On to `OCCCNc1nccc(-c2c(-c3ccc(F)cc3)nn3cc(C(F)(F)F)ccc23)n1`, for which the GI50 is 7.07 µM and the TGI is more than 25 µM.
For `O=S(=O)(Nc1ccc(F)cc1F)c1ccc(-c2cnc(C3CC3)o2)cc1`, the GI50 was 1.07 µM and the TGI was 34.2 µM.
Turning to `O=C(CSC1CCc2ccccc21)N/N=C/c1ccccc1O` (configuration not stated), the GI50 is 0.985 µM and the TGI amounted to 17 µM.
In the case of `COc1cc(C(=O)N2CCN(c3ncccn3)CC2)c(N)cc1OCc1ccccc1`, the GI50 was more than 100 µM and the TGI is more than 100 µM.
Consider `CCOc1ccncc1[N+](=O)[O-]`, for which the TGI was more than 100 µM.
The same measure, in the same setting: the value for `C=C1C(=O)OC2CC(C)C3(O)CCC(=O)C3(C)CC12` (configuration not stated) was more than 100 µM; that for `Cc1nc2sc3c(c2c(=O)[nH]1)CCCC3` was 68.2 µM.
Consider `O=C1NC(=O)/C(=C\c2ccccc2)C2=C1CCCC2`, for which the GI50 was 7.43 µM and the TGI was found to be 21.8 µM.
In the case of `O=C(Nc1ccc(F)cc1)c1cc(S(=O)(=O)Nc2nc3ccccc3o2)c(SCc2ccccc2)cc1Cl`, the GI50 is 14.1 µM and the TGI was 29.2 µM.
Regarding `C#COc1cccc(Nc2c(C#N)cnc3ncc(NC(=O)CCl)cc23)c1`, the GI50 is 35.1 µM and the TGI is more than 62.5 µM.
Consider `CC[C@H]1CN2CCc3cc(OC)c(OC)cc3[C@@H]2C[C@@H]1C[C@H]1NCCc2c1[nH]c1ccc(O)cc21`, for which the GI50 was 0.251 µM and 1.2 µM; the TGI is 0.772 µM and 4.5 µM and 1.9 µM.
As to `CCCCCOc1ccc(/C=N/Nc2cc(C)nc3ccc(Br)cc23)cc1`, the GI50 is 1.57 µM and the TGI was 3 µM.
